Test results taken from patent US20120149902A1, “PYRROLO[2,3-D]PYRIMIDINE DERIVATIVE” (UBE INDUSTRIES, LTD., priority 2009, published 2012).

Experiments:
[1] = target: T1, purified human recombinant HER2 kinase (Lys676-Val1255, GST fusion) (Homo sapiens, UniProt P04626); assay: HER2 kinase enzyme inhibitory activity (HTRF); assay type: biochemical; settings: 200 μM ATP, FLT3 analogous peptide substrate, 60 minutes at room temperature
T1 construct: human recombinant HER2 kinase (Lys676-Val1255, GST fusion); GST
T1 sequence (P04626 676-1255): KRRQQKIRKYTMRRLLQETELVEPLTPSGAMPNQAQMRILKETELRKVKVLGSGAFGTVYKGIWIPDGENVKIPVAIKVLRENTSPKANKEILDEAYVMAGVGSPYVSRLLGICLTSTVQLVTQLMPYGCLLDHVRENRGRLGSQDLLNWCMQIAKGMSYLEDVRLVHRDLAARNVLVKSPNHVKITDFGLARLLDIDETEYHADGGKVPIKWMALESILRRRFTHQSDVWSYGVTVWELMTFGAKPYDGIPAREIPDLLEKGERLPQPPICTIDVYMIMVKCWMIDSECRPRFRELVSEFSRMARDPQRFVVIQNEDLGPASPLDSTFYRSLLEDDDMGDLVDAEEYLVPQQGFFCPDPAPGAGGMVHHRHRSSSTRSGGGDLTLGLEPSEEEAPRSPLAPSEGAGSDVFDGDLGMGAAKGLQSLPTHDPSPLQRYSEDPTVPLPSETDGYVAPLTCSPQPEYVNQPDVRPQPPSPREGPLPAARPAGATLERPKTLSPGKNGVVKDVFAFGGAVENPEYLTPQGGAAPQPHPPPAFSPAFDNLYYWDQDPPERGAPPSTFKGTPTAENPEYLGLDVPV
Description: The HER2 kinase enzyme inhibitory activity of a compound of the present invention was evaluated by using a purified human recombinant HER2 kinase (Lys676-Val1255, GST fusion) and a synthetic peptide as a substrate, and detecting the phosphorylation level of the substrate by the HTRF method (homogeneous time resolved fluorescence method). Specifically, 25 ng/well of activated HER2, 200 μM of ATP, 200 ng/well of FLT3 analogous peptide (biotin label, peptide sequence is AGGSSDNEYFYVDF), and test compound (final concentration 0.01 nM to 30 μM) were mixed in kinase reaction buffer (60 mM HEPES, 5 mM MgCl2, 5 mM MnCl2, 3 mM Na3VO4, 1.25 mM DTT, pH 7.5) to prepare 50 μL/well of total reaction volume, and the mixture was reacted for 60 minutes at room temperature. Then, the phosphorylation reaction was stopped and HTRF reaction was carried out by adding 25 μL/well of PBS solution comprising the following components and reacting the mixture for 12 to 16 hours at 4° C. The following components were dissolved in PBS (pH 7.0) to prepare the PBS solution composition: 60 mM EDTA (final concentration 20 mM), 1.2 M KF (final concentration […]), 1 mg/mL BSA (final concentration 333 μg/mL), 6 μg/mL anti-PY20-Cryptate (Cisbio international, France, final concentration 2 μg/mL), and 15 μg/mL Streptavidin labeled with XL665 (Cisbio international, France, final concentration 5 μg/mL).

[2] = test system: HER2 overexpressed gastric cancer cell line; assay: In vivo anti-tumor effect, subcutaneous tumor transplant in nude mouse; settings: dosage 60 mg/kg, oral, daily except Saturday and Sunday, 2 to 4 weeks, read-out: Tumor growth inhibition ratio (%)
Description: The anti-tumor effect in vivo of a compound of the present invention was evaluated using a HER2 overexpressed gastric cancer cell line. Specifically, a tumor fragment with about 5 mm square was transplanted subcutaneously using a transplantation needle, or an appropriate number of tumor cells was suspended in saline (Otsuka Pharmaceutical Co., Ltd.) and transplanted under the skin of the right axillary region of a nude mouse using a glass syringe equipped with a two-stage needle for subcutaneous injection. After the confirmation of the engraftment of the transplanted tumors, the mice were classified into groups depending on the tumor volume. The test compounds: the Example Compounds 1-1, 1-2, 1-5, 1-8, 1-13, 1-14, 1-15, 1-19, 1-20, 1-22, 2-1, 2-3, and 3-2 were each dissolved or suspended in an appropriate medium and orally administered forcedly to a mouse. The period of administration was varied from 2 weeks to 4 weeks depending on tumor, and the administration was carried out daily with drug holidays of Saturday and Sunday. The major axis (mm) and the minor axis (mm) of a tumor were measured sequentially using an electronic digital vernier caliper, and evaluated by the tumor growth inhibition ratio (GI %) on the judgement day (in principle, the next day of the final administration) using the following calculating formula.
A: Average tumor volume on the judgement day of the group to which a compound was administered (*)
B: Average tumor volume on the judgement day of the untreated control group (*)
*: The tumor volume is calculated by ½×[major axis of tumor]×[minor axis of tumor]^2.

[3] = test system: HER2 overexpressed gastric cancer cell line NCI-N87; assay: Cytotoxic activity (in vitro), CellTiter-Glo viable cell count; assay type: cell-based; settings: Homo sapiens, NCI-N87, 72 h, NCI-N87, cultured for 72 hours
Description: The cytotoxic activity of a compound of the present invention was investigated using a HER2 overexpressed gastric cancer cell line NCI-N87. Specifically, an appropriate amount of cells was seeded into a 96-well plate for cell culture at 50 μL/well, and precultured overnight at 37° C. under 5% —CO2 condition. A solution of a test compound in DMSO with dilution series was diluted with medium, and added to the precultured cells at the volume of 50 μL/well. The mixture was prepared such that the final concentration of DMSO became 0.1%. After the mixture was cultured for 72 hours at 37° C. under 5% —CO2 condition, 100 μL/well of CellTiter-Glo solution (Promega, Madison, Wis.) was added, the luminescence was measured using a luminometer (Wallac ARVO™ SX) 10 minutes later, and the viable cell count was determined.

## CC1(N)CCN(Cc2c[nH]c3ncnc(Nc4ccc5occc5c4)c23)CC1 [Example 1-15, [5-(4-Amino-4-methylpiperidin-1-ylmethyl)-7H-pyrrolo[2,3-d]pyrimidin-4-yl](benzofuran-5-yl)amine]
[1]
  IC50: 0.01 to 0.05 µM
[2]
  inhibition in vivo at 60 mg/kg: 90%
[3]
  GI50: 0.02 to 0.05 µM
